Laboratory results as given in ChEMBL document CHEMBL1221260, “Discovery of cannabinoid-1 receptor antagonists by virtual screening” (Bioorg Med Chem Lett, 2010).
One block for each compound: values may come before it.

What was measured:
Cannabinoid receptor 1 = Cannabinoid receptor 1 (Homo sapiens, UniProt P21554); assay: Inhibition of human CB1 receptor expressed in CHOK1 cells by luciferase reporter gene assay; type: cell-based; set-up: concentration or dose not given beside the values; settings: for inhibition: CHO-K1, concentration not given here
Cannabinoid receptor 1, sequence (P21554 whole entry): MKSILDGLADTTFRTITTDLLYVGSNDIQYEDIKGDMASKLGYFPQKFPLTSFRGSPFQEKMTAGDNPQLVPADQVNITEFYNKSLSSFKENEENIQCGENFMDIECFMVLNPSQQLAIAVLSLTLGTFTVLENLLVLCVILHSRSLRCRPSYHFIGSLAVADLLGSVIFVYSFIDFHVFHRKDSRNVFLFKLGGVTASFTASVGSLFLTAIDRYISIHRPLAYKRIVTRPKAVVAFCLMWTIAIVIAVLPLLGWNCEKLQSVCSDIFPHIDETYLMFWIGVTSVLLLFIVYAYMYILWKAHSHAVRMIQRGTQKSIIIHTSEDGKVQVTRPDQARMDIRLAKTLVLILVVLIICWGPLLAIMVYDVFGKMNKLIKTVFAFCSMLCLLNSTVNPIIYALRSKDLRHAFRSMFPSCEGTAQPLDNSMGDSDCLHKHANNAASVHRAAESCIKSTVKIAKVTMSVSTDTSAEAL

[1] = Stability in rat plasma for 30 mins; type: ADME, cell-free; settings: read-out: Stability
Liver microsomes [2] = assay: Metabolic stability in rat liver microsomes; type: ADME, Microsome
[3] = Plasma protein binding in rat; type: ADME, cell-free; settings: read-out: PPB (converted)
Homo sapiens [4] = species on record: Homo sapiens; assay: Stability in human plasma for 30 mins
Homo sapiens [5] = species on record: Homo sapiens; assay: Plasma protein binding in human; settings: read-out: PPB (converted)
Liver microsomes [6] = assay: Metabolic stability in human liver microsomes; type: ADME, Microsome

SMILES: O=C1N=C(Nc2cccc(C(F)(F)F)c2)S/C1=C\c1cccnc1
remaining at 0.5 h [1]: > 99% | IC50 (Cannabinoid receptor 1): 0.125 µM | Stability (Liver microsomes [2]): 96.1% | fraction unbound [3]: 0.034 | remaining at 0.5 h (Homo sapiens [4]): > 99% | fraction unbound (Homo sapiens [5]): 0.058 | Stability (Liver microsomes [6]): 87%

SMILES: O=C(NC[C@@H]1CCCO1)c1nc(-c2ccc(Cl)cc2)n2c1CCCCC2
inhibition (Cannabinoid receptor 1): 63%

SMILES: C=C(C)Cn1c(SCC(=O)OC)nc2sc3c(c2c1=O)CC(C)(C)OC3
IC50 (Cannabinoid receptor 1): 0.29 µM

Further lines, results first:

inhibition (Cannabinoid receptor 1): 90%
SMILES: Cc1ccc(-n2nc3c(c2NC(=O)c2ccco2)CS(=O)(=O)C3)c(C)c1

inhibition (Cannabinoid receptor 1): 102%
SMILES: COC(=O)c1cc(S(=O)(=O)N2CCn3c2nc2ccccc23)c[nH]1

inhibition (Cannabinoid receptor 1): 83%
SMILES: COC(=O)c1ccc([C@@H]2CC(=O)N3C(=C2C#N)SC[C@]3(O)c2ccc(C)cc2)cc1

inhibition (Cannabinoid receptor 1): 94%
SMILES: CCOC(=O)c1c(NC(=O)Cc2ccccc2)sc2c1CCN(C(=O)OCC)C2
